In patent US8258114B2, “Modulation of glucose-6-phosphatase translocase expression” (Isis Pharmaceuticals, Inc., priority 2004, dated 2012):
Oligonucleotides are written 5' to 3', each unit as a sugar letter and its base; * is a phosphorothioate linkage, no mark a phosphodiester; rarer units and linkages stand in square brackets, end groups in braces. Plain capitals give the bases only. e = 2'-O-(2-methoxyethyl) (MOE); [5mC] = 5-methylcytosine; d = 2'-deoxy (DNA)

Test system: human glucose-6-phosphatase translocase mRNA
Assay: Antisense inhibition of human glucose-6-phosphatase translocase mRNA in HepG2 cells (Table 11)
Type: cell-based
Design: concentration or dose not given beside the values
Conditions: LIPOFECTIN, mRNA by real-time PCR
Outline: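 HepG2 cells at 65-75% confluency transfected with 2′-MOE gapmer oligonucleotides using LIPOFECTIN (2.5 or 3 μg/mL per 100 nM oligo) for 4-7 h and harvested 16-24 h later. Target mRNA measured by RT real-time PCR and normalized to GAPDH or RiboGreen total RNA.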

First: AGGGTGCTCTCCTCCTTCAA (eA*eG*eG*eG*eT*dG*d[5mC]*dT*d[5mC]*dT*d[5mC]*d[5mC]*dT*d[5mC]*d[5mC]*eT*eT*e[5mC]*eA*eA; antisense) [ISIS 194855]
Second: CCACCTATATCCAACTGCGC (e[5mC]*e[5mC]*eA*e[5mC]*e[5mC]*dT*dA*dT*dA*dT*d[5mC]*d[5mC]*dA*dA*d[5mC]*eT*eG*e[5mC]*eG*e[5mC]; antisense) [ISIS 194839]
The “% Inhib” value of the first is lower: 66% for the first, 75% for the second.

First: CCCACTGACAAACTTGCTGA (e[5mC]*e[5mC]*e[5mC]*eA*e[5mC]*dT*dG*dA*d[5mC]*dA*dA*dA*d[5mC]*dT*dT*eG*e[5mC]*eT*eG*eA; antisense) [ISIS 194850]
Second: TGACTGCAGAAGTTTCCTGT (eT*eG*eA*e[5mC]*eT*dG*d[5mC]*dA*dG*dA*dA*dG*dT*dT*dT*e[5mC]*e[5mC]*eT*eG*eT; antisense) [ISIS 194838]
The “% Inhib” value of the first is lower: 38% for the first, 42% for the second.

Test system: human glucose-6-phosphatase translocase mRNA
Assay: Antisense inhibition of human glucose-6-phosphatase translocase mRNA in T-24 cells, real-time PCR (Table 4)
Type: cell-based
Conditions: 100 nM oligonucleotide, LIPOFECTIN, mRNA by real-time PCR
Method: The transitional cell bladder carcinoma cell line T-24 was obtained from the American Type Culture Collection (ATCC) (Manassas, Va.). T-24 cells were routinely cultured in complete McCoy's 5A basal media (Invitrogen Life Technologies, Carlsbad, Calif.) supplemented with 10% fetal bovine serum (Invitrogen Life Technologies, Carlsbad, Calif.). Cells were routinely passaged by trypsinization and dilution when they reached approximately 90% confluence. Cells were seeded into 96-well plates (Falcon-Primaria #3872) at a density of approximately 4000-6000 cells/well for use in oligomeric compound transfection experiments. When cells reached 65-75% confluency, they were treated with oligonucleotide. […] This transfection mixture was incubated at room temperature for approximately 0.5 hours. For cells grown in 96-well plates, wells were washed once with 100 μL OPTI-MEMTM-1 and then treated with 130 μL of the transfection mixture. Cells grown in 24-well plates or other standard tissue culture plates are treated similarly, using appropriate volumes of medium and oligonucleotide. Cells are treated and data are obtained in duplicate or triplicate. After approximately 4-7 hours of treatment at 37° C., the medium containing the transfection mixture was replaced with fresh culture medium. Cells were harvested 16-24 hours after oligonucleotide treatment. […] Prior to quantitative PCR analysis, primer-probe sets specific to the target gene being measured were evaluated for their ability to be “multiplexed” with a GAPDH amplification reaction. After isolation the RNA is subjected to sequential reverse transcriptase (RT) reaction and real-time PCR, both of which are performed in the same well. RT and PCR reagents were obtained from Invitrogen Life Technologies (Carlsbad, Calif.). […] The RT reaction was carried out by incubation for 30 minutes at 48° C. Following a 10 minute incubation at 95° C. to activate the PLATINUM® Taq, 40 cycles of a two-step PCR protocol were carried out: 95° C. for 15 seconds (denaturation) followed by 60° C. for 1.5 minutes (annealing/extension). Gene target quantities obtained by RT, real-time PCR were normalized using either the expression level of GAPDH, a gene whose expression is constant, or by quantifying total RNA using RiboGreenTM (Molecular Probes, Inc. Eugene, Oreg.). GAPDH expression was quantified by RT, real-time PCR, by being run simultaneously with the target, multiplexing, or separately. Total RNA was quantified using RiboGreenTM RNA quantification reagent (Molecular Probes, Inc. Eugene, Oreg.). A series of oligomeric compounds was designed to target different regions of human glucose-6-phosphatase translocase, using published sequences cited in Table 1. All compounds in Table 4 are chimeric oligonucleotides (“gapmers”) 20 nucleotides in length, composed of a central “gap” region consisting of 10 2'-deoxynucleotides, which is flanked on both sides ([NT]) by five-nucleotide “wings”. The wings are composed of 2'-O-(2-methoxyethyl) nucleotides, also known as 2'-MOE nucleotides. The internucleoside (backbone) linkages are phosphorothioate throughout the oligonucleotide. All cytidine residues are 5-methylcytidines. The compounds were analyzed for their effect on gene target mRNA levels by quantitative real-time PCR as described in other examples herein, using the following primer-probe set designed to hybridize to human glucose-6-phosphatase translocase: Forward primer: [NT] (incorporated herein as SEQ ID NO: 24) Reverse primer: [NT] (incorporated herein as SEQ ID NO: 25) And the PCR probe was: […] (incorporated herein as SEQ ID NO: 26), where FAM is the fluorescent dye and TAMRA is the quencher dye. Data are from experiments in which T-24 cells were treated with 100 nM of the antisense oligonucleotides of the present invention using LIPOFECTINTM. A reduction in expression is expressed as percent inhibition in Table 4. If present, “N.D.” indicates “not determined”. The control oligomeric compound used was SEQ ID NO: 11. […]

First: AGGGTGCTCTCCTCCTTCAA (eA*eG*eG*eG*eT*dG*d[5mC]*dT*d[5mC]*dT*d[5mC]*d[5mC]*dT*d[5mC]*d[5mC]*eT*eT*e[5mC]*eA*eA; antisense) [ISIS 194855]
Second: CCACCTATATCCAACTGCGC (e[5mC]*e[5mC]*eA*e[5mC]*e[5mC]*dT*dA*dT*dA*dT*d[5mC]*d[5mC]*dA*dA*d[5mC]*eT*eG*e[5mC]*eG*e[5mC]; antisense) [ISIS 194839]
The “% Inhib” value of the first is lower: 57% for the first, 83% for the second.

Compared with “CCCACTGACAAACTTGCTGA (e[5mC]*e[5mC]*e[5mC]*eA*e[5mC]*dT*dG*dA*d[5mC]*dA*dA*dA*d[5mC]*dT*dT*eG*e[5mC]*eT*eG*eA; antisense) [ISIS 194850]”, “CTTGGCAATGGTGCTGAAGG (e[5mC]*eT*eT*eG*eG*d[5mC]*dA*dA*dT*dG*dG*dT*dG*d[5mC]*dT*eG*eA*eA*eG*eG; antisense) [ISIS 194847]” is lower in “% Inhib” value: 88% for the first, 66% for the second.

Going from “GATAGCCTCACTTCAGGTGG (eG*eA*eT*eA*eG*d[5mC]*d[5mC]*dT*d[5mC]*dA*d[5mC]*dT*dT*d[5mC]*dA*eG*eG*eT*eG*eG; antisense) [ISIS 194836]” to “GATGAACCCCAAATCATCCT (eG*eA*eT*eG*eA*dA*d[5mC]*d[5mC]*d[5mC]*d[5mC]*dA*dA*dA*dT*d[5mC]*eA*eT*e[5mC]*e[5mC]*eT; antisense) [ISIS 194827]”, the “% Inhib” value falls from 58% to 55%.

Compared with “GCTGACTGTCCTTTCTCCTG (eG*e[5mC]*eT*eG*eA*d[5mC]*dT*dG*dT*d[5mC]*d[5mC]*dT*dT*dT*d[5mC]*eT*e[5mC]*e[5mC]*eT*eG; antisense) [ISIS 194859]”, “GCTGCGCCAGCTGTAGCTCT (eG*e[5mC]*eT*eG*e[5mC]*dG*d[5mC]*d[5mC]*dA*dG*d[5mC]*dT*dG*dT*dA*eG*e[5mC]*eT*e[5mC]*eT; antisense) [ISIS 194843]” is higher in “% Inhib” value: 62% for the first, 66% for the second.

First: GGACTCTCTTCACTCAGCCT (eG*eG*eA*e[5mC]*eT*d[5mC]*dT*d[5mC]*dT*dT*d[5mC]*dA*d[5mC]*dT*d[5mC]*eA*eG*e[5mC]*e[5mC]*eT; antisense) [ISIS 194825]
Second: GGTGCGGATGTTTCGTAGGA (eG*eG*eT*eG*e[5mC]*dG*dG*dA*dT*dG*dT*dT*dT*d[5mC]*dG*eT*eA*eG*eG*eA; antisense) [ISIS 194826]
The “% Inhib” value of the first is lower: 73% for the first, 76% for the second.

First: GGTTGCCAGGATAGGGCCCA (eG*eG*eT*eT*eG*d[5mC]*d[5mC]*dA*dG*dG*dA*dT*dA*dG*dG*eG*e[5mC]*e[5mC]*e[5mC]*eA; antisense) [ISIS 194846]
Second: GTCAAGGGTCATTAGTGCCC (eG*eT*e[5mC]*eA*eA*dG*dG*dG*dT*d[5mC]*dA*dT*dT*dA*dG*eT*eG*e[5mC]*e[5mC]*e[5mC]; antisense) [ISIS 194854]
The “% Inhib” value of the first is lower: 70% for the first, 80% for the second.

First: TAACCAGTGGAGAGCACCCA (eT*eA*eA*e[5mC]*e[5mC]*dA*dG*dT*dG*dG*dA*dG*dA*dG*d[5mC]*eA*e[5mC]*e[5mC]*e[5mC]*eA; antisense) [ISIS 194833]
Second: TAGTGGTACAGTGAGAATGA (eT*eA*eG*eT*eG*dG*dT*dA*d[5mC]*dA*dG*dT*dG*dA*dG*eA*eA*eT*eG*eA; antisense) [ISIS 194848]
The “% Inhib” value of the first is lower: 60% for the first, 81% for the second.

Going from “TCCTTGTCCAAAGGGATCTC (eT*e[5mC]*e[5mC]*eT*eT*dG*dT*d[5mC]*d[5mC]*dA*dA*dA*dG*dG*dG*eA*eT*e[5mC]*eT*e[5mC]; antisense) [ISIS 194842]” to “TCTCTTCCACCAATGATGGC (eT*e[5mC]*eT*e[5mC]*eT*dT*d[5mC]*d[5mC]*dA*d[5mC]*d[5mC]*dA*dA*dT*dG*eA*eT*eG*eG*e[5mC]; antisense) [ISIS 194841]”, the “% Inhib” value falls from 57% to 41%.

Compared with “TGACTGCAGAAGTTTCCTGT (eT*eG*eA*e[5mC]*eT*dG*d[5mC]*dA*dG*dA*dA*dG*dT*dT*dT*e[5mC]*e[5mC]*eT*eG*eT; antisense) [ISIS 194838]”, “TGACTGTCCTTTCTCCTGGA (eT*eG*eA*e[5mC]*eT*dG*dT*d[5mC]*d[5mC]*dT*dT*dT*d[5mC]*dT*d[5mC]*e[5mC]*eT*eG*eG*eA; antisense) [ISIS 194834]” is lower in “% Inhib” value: 91% for the first, 71% for the second.

Compared with “TGCCTACAAGGCCCCCAACT (eT*eG*e[5mC]*e[5mC]*eT*dA*d[5mC]*dA*dA*dG*dG*d[5mC]*d[5mC]*d[5mC]*d[5mC]*e[5mC]*eA*eA*e[5mC]*eT; antisense) [ISIS 194849]”, “TGCGCCTAGTGGTACAGTGA (eT*eG*e[5mC]*eG*e[5mC]*d[5mC]*dT*dA*dG*dT*dG*dG*dT*dA*d[5mC]*eA*eG*eT*eG*eA; antisense) [ISIS 194829]” is higher in “% Inhib” value: 65% for the first, 82% for the second.

“TGTCCTTTCTCCTGGATAAG (eT*eG*eT*e[5mC]*e[5mC]*dT*dT*dT*d[5mC]*dT*d[5mC]*d[5mC]*dT*dG*dG*eA*eT*eA*eA*eG; antisense) [ISIS 194852]” and “TGTTTCGTAGGAGGAAGAAG (eT*eG*eT*eT*eT*d[5mC]*dG*dT*dA*dG*dG*dA*dG*dG*dA*eA*eG*eA*eA*eG; antisense) [ISIS 194857]” are the same in “% Inhib” value: 44% for the first, 44% for the second.

For “TTCCTGCTTGCCGCTCTCAC (eT*eT*e[5mC]*e[5mC]*eT*dG*d[5mC]*dT*dT*dG*d[5mC]*d[5mC]*dG*d[5mC]*dT*e[5mC]*eT*e[5mC]*eA*e[5mC]; antisense) [ISIS 194845]”, the “% Inhib” value was 50%.
